Data published in ChEMBL document CHEMBL4020782, “Design, synthesis and biological evaluation of 4-piperazinyl-containing Chidamide derivatives as HDACs inhibitors” (Bioorg Med Chem Lett, 2017).
pIC50: −log10 of the molar value. Each block holds one molecule with its values, some of them ahead of it.

Columns and labels:
[1] = molecular target: T1, Histone deacetylase 1 (Homo sapiens, UniProt Q13547); test: Inhibition of recombinant human HDAC1 using a fluorogenic substrate at 1 uM by fluorescence method
T1 sequence (Q13547 whole entry): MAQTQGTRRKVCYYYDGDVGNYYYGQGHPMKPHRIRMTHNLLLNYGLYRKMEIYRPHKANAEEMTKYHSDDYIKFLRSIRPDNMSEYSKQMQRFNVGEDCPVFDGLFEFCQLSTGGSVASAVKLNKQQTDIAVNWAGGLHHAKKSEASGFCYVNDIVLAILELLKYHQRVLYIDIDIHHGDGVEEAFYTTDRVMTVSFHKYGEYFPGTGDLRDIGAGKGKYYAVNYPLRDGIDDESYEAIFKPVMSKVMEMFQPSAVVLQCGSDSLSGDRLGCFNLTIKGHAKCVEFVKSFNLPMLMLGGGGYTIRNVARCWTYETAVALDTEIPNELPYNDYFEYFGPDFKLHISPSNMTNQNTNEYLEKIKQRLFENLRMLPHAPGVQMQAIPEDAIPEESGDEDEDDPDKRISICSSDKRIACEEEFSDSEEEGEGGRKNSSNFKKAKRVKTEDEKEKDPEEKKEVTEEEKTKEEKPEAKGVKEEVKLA

[2] = molecular target: T1, Histone deacetylase 1; test: Inhibition of recombinant human HDAC1 using a fluorogenic substrate at 10 uM by fluorescence method
[3] = molecular target: T1, Histone deacetylase 1; test: Inhibition of recombinant human HDAC1 expressed in Baculovirus insect cell expression system using [3H]-metabolically labeled acetylated histone substrate after 30 mins by scintillation counting
[4] = tested on: PC-3; test: Antitumor activity against human PC3 cells xenografted in nude mouse assessed as tumor growth inhibition at 100 mg/kg, ig administered 7 days per week for 3 weeks; type: functional; conditions: PC-3, po, read-out: TGI
[5] = tested on: MRC5; test: Antiproliferative activity against human MRC5 cells after 48 to 72 hrs by MTT assay; type: cell-based
[6] = tested on: HCT-116; test: Antiproliferative activity against human HCT116 cells after 48 to 72 hrs by MTT assay; type: functional, cell-based
[7] = tested on: A549; test: Antiproliferative activity against human A549 cells after 48 to 72 hrs by MTT assay; type: functional, cell-based
[8] = tested on: K562; test: Antiproliferative activity against human K562 cells after 48 to 72 hrs by MTT assay; type: functional, cell-based
[9] = tested on: PC-3; test: Antiproliferative activity against human PC3 cells after 48 to 72 hrs by MTT assay; type: functional, cell-based
[10] = molecular target: T1, Histone deacetylase 1; test: Inhibition of recombinant human HDAC1 using a fluorogenic substrate by fluorescence method
[11] = molecular target: Voltage-gated inwardly rectifying potassium channel KCNH2 (Homo sapiens, UniProt Q12809); test: Inhibition of recombinant human ERG expressed in HEK293 cells after 9 mins by patch clamp method
Chain of Voltage-gated inwardly rectifying potassium channel KCNH2 (Q12809 whole entry): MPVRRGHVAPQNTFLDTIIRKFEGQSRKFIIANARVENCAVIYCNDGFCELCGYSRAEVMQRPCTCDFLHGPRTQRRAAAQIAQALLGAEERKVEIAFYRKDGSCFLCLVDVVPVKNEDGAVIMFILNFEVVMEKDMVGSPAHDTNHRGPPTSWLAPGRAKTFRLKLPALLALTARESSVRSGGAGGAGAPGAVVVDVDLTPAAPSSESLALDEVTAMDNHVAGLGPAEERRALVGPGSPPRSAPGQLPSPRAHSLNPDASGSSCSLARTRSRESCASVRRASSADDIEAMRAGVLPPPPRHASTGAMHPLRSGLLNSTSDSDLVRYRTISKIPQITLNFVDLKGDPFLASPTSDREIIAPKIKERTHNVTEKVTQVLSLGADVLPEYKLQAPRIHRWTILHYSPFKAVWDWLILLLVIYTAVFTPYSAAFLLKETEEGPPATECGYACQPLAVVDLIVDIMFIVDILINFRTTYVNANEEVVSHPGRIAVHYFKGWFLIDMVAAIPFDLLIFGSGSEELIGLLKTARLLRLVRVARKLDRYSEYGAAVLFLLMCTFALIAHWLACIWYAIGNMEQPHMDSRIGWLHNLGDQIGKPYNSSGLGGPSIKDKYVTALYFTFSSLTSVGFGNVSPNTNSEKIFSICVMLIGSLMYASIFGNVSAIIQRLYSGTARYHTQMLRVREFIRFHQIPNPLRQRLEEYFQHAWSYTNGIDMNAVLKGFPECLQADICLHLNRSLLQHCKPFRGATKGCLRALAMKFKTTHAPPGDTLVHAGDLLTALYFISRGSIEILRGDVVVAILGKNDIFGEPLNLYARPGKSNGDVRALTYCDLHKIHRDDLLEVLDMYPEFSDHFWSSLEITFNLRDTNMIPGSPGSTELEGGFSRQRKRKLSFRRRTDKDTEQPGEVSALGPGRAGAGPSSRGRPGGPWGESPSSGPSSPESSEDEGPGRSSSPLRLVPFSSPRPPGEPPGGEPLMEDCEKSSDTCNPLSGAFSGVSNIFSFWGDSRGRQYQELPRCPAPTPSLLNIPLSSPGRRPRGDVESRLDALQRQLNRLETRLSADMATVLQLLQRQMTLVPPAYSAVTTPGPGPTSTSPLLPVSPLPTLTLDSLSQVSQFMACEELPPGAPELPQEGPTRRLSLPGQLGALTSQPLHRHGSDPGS

[12] = Terminal half life in Sprague-Dawley rat at 2 mg/kg, iv administered as single dose by HPLC-MS method; type: ADME, organism-based; conditions: in vivo, read-out: beta t1/2 (converted)
[13] = Clearance in Sprague-Dawley rat at 2 mg/kg, iv administered as single dose by HPLC-MS method; type: ADME, organism-based; conditions: in vivo
[14] = Volume of distribution at steady state in Sprague-Dawley rat at 2 mg/kg, iv administered as single dose by HPLC-MS method; type: ADME, organism-based; conditions: in vivo, read-out: Vdss
[15] = Tmax in Sprague-Dawley rat at 10 mg/kg, po administered as single dose by HPLC-MS method; type: ADME, organism-based; conditions: in vivo
[16] = Cmax in Sprague-Dawley rat at 10 mg/kg, po administered as single dose by HPLC-MS method; type: ADME, organism-based; design: dose 10 mg/kg, route oral; conditions: in vivo
[17] = AUC in Sprague-Dawley rat at 10 mg/kg, po administered as single dose by HPLC-MS method; type: ADME, organism-based; conditions: in vivo
[18] = Oral bioavailability in Sprague-Dawley rat at 10 mg/kg administered as single dose by HPLC-MS method; type: ADME, organism-based; conditions: in vivo
[19] = tested on: HCT-116; test: Antitumor activity against human HCT116 cells xenografted in mouse assessed as tumor growth inhibition at 25 mg/kg, po daily for 21 days; type: functional; conditions: HCT-116, po, 504 h, read-out: TGI
[20] = tested on: HCT-116; test: Antitumor activity against human HCT116 cells xenografted in mouse assessed as tumor growth inhibition at 50 mg/kg, po daily for 21 days; type: functional; conditions: HCT-116, po, 504 h, read-out: TGI
[21] = tested on: HCT-116; test: Antitumor activity against human HCT116 cells xenografted in mouse assessed as tumor growth inhibition at 100 mg/kg, po daily for 21 days; type: functional; conditions: HCT-116, po, 504 h, read-out: TGI
[22] = tested on: HCT-116; test: Antitumor activity against human HCT116 cells xenografted in po dosed mouse assessed as tumor growth inhibition administered daily for 21 days; type: functional, organism-based
[23] = tested on: Mus musculus; test: Toxicity in mouse xenografted with HCT116 cells assessed as weight loss at 50 mg/kg, po daily for 21 days; type: organism-based; conditions: in vivo, 504 h
[24] = tested on: Mus musculus; test: Toxicity in mouse xenografted with HCT116 cells assessed as weight loss at 100 mg/kg, po daily measured for 12 days; type: organism-based; conditions: in vivo, 288 h
[25] = tested on: Mus musculus; test: Toxicity in mouse xenografted with HCT116 cells assessed as weight loss at 25 mg/kg, po daily for 21 days; type: organism-based; conditions: in vivo, 504 h

inhibition [1]: 49.6%
inhibition [2]: 75.5%
SMILES: Nc1ccccc1NC(=O)c1ccc(N2CCN(C(=O)/C=C/c3ccc4c(c3)OCO4)CC2)cc1

pIC50 [3]: 5.48
SMILES: COc1ccc(/C=C/C(=O)NCc2ccc(C(=O)Nc3ccncc3N)cc2)cc1
inhibition in vivo at 100 mg/kg [4]: 39%

inhibition [1]: 45.3%
inhibition [2]: 66.9%
SMILES: COc1cccc(/C=C/C(=O)N2CCN(c3ccc(C(=O)Nc4ccccc4N)cc3)CC2)c1

inhibition [1]: 55.1%
inhibition [2]: 81.3%
pIC50 [6]: 6.69
pIC50 [7]: 6.18
pIC50 [8]: 6.01
pIC50 [9]: 5.68
SMILES: Nc1ccc(F)cc1NC(=O)c1ccc(CNC(=O)/C=C/c2cccnc2)cc1
pIC50 [5]: < 4.52

inhibition [1]: 21.8%
inhibition [2]: 60.5%
SMILES: COc1cc(/C=C/C(=O)N2CCN(c3ccc(C(=O)Nc4ccccc4N)cc3)CC2)cc(OC)c1OC

inhibition [1]: 52%
inhibition [2]: 79%
pIC50 [10]: 6.01
pIC50 [6]: 5.70
pIC50 [7]: 6.09
pIC50 [8]: 5.96
pIC50 [9]: 5.67
SMILES: Nc1ccccc1NC(=O)c1ccc(N2CCN(C(=O)/C=C/c3ccc(F)cc3)CC2)cc1
pIC50 [5]: < 4.52

inhibition [1]: 36%
inhibition [2]: 58.8%
SMILES: Nc1cc(F)ccc1NC(=O)c1ccc(N2CCN(C(=O)/C=C/c3ccc(F)cc3)CC2)cc1

inhibition [1]: 50.2%
inhibition [2]: 87.8%
pIC50 [10]: 6.04
pIC50 [6]: 6.12
pIC50 [7]: 6.28
pIC50 [8]: 5.53
pIC50 [9]: 5.06
SMILES: COc1ccc(/C=C/C(=O)N2CCN(c3ccc(C(=O)Nc4ccccc4N)cc3)CC2)cc1
pIC50 [5]: < 4.52
pIC50 [11]: 4.60

inhibition [1]: 46.5%
inhibition [2]: 79.2%
SMILES: COc1ccc(/C=C/C(=O)N2CCN(c3ccc(C(=O)Nc4ccccc4N)cc3)CC2)cc1OC

inhibition [1]: 18%
inhibition [2]: 53.4%
SMILES: Nc1cc(F)ccc1NC(=O)c1ccc(N2CCN(C(=O)/C=C/c3ccc4c(c3)OCO4)CC2)cc1

inhibition [1]: 17.4%
inhibition [2]: 64.3%
SMILES: Cc1ccc(/C=C/C(=O)N2CCN(c3ccc(C(=O)Nc4ccc(F)cc4N)cc3)CC2)cc1

inhibition [1]: 56.3%
inhibition [2]: 94.2%
pIC50 [10]: 6.10
pIC50 [6]: 7.16
pIC50 [7]: 6.87
pIC50 [8]: 5.31
pIC50 [9]: 5.40
half-life [12]: 64.2 min
clearance [13]: 7.5 mL/min/kg
Vd [14]: 0.11 L/kg
Tmax [15]: 25.8 min
Cmax [16]: 2510 ng/mL
AUC [17]: 8910 ng·h/mL
bioavailability [18]: 36.3%
SMILES: Cc1ccc(/C=C/C(=O)N2CCN(c3ccc(C(=O)Nc4ccccc4N)cc3)CC2)cc1
pIC50 [5]: < 4.52
pIC50 [11]: 4.57
inhibition in vivo at 25 mg/kg [19]: 42.4%
inhibition in vivo at 50 mg/kg [20]: 55.1%
inhibition in vivo at 100 mg/kg [21]: 76.3%
TGI [22]: Dose-dependent effect
Activity [23]: 11.3%
Activity [24]: 19.2%
Activity [25]: < 5%

inhibition [1]: 4.71%
inhibition [2]: 19.2%
SMILES: Nc1cc(F)ccc1NC(=O)c1ccc(N2CCN(C(=O)/C=C/c3cccnc3)CC2)cc1

inhibition [1]: 18.1%
inhibition [2]: 53.8%
SMILES: Nc1ccccc1NC(=O)c1ccc(N2CCN(C(=O)/C=C/c3cccnc3)CC2)cc1

inhibition [1]: 34.3%
inhibition [2]: 66.8%
SMILES: Nc1ccccc1NC(=O)c1ccc(N2CCN(C(=O)/C=C/c3ccccc3)CC2)cc1
